What was measured:
Assay type in all cases: physicochemical
[1] = Drying experiments: form conversion and stability on drying under vacuum (XRPD, HPLC); conditions: for Degradation by HPLC after drying: dried further for 24 hours
Description: Conversion of Form C to Form B was evaluated at 40° C. under vacuum. Two different lots of 215 mg and 134 mg of Form C were dried under vacuum at 40° C.
To evaluate the stability of DCA Form B at 50° C. and 70° C., two lots of Form C were dried at 50° C. and 70° C. for 2 hours. […] The samples were dried further for 24 hours and retained for HPLC analysis.
Another drying study was performed to evaluate the stability of Form B DCA dried at 50° C. with deionized water (DI-water) and EtOH. Samples of DCA (2.0 g) were combined with DI water and EtOH. The samples were then dried under vacuum for an extended period of time at 50° C.
The form conversion of Form C to Form B at approximately 45° C. under vacuum was analyzed by XRPD every 20 minutes. FIG. 4 graphically illustrates the conversion of the Form C to Form B upon heating.
All the experiments were cooled at 10° C./h to 20° C. and left to stir overnight. A final portion of deionized water (Water #3) was added and the mixtures were stirred for 3 hours.

[2] = Slurry stability in EtOH/water (XRPD)
Description: To evaluate form stability under slurry conditions, Forms A and B were slurried in about 1:1.2 v/v EtOH/water at ambient temperature and at 50° C. […] Approximately 217 mg of DCA Form B was mixed with 1.5 mL of EtOH/water (1:2.37 v/v). The mixture was heated at 50° C. with stirring for 2 hours and an aliquot was filtered to isolate wet solids for XRPD analysis.

[3] = Form conversions via heating (XRPD)
Description: 20 mg of DCA Form B was weighed in an alumina crucible and heated from 30° C. to 150° C. at a ramp rate of 10° C./min and then held at 150° C. for 30 minutes. The material was cooled to ambient temperature rapidly on the instrument and analyzed by XRPD.
19 mg of DCA Form B was weighed in an alumina crucible and heated from 30° C. to 135° C. at a ramp rate of 10° C./min and then held at 135° C. for 30 minutes. The material was cooled to ambient temperature rapidly on the instrument and analyzed by XRPD.

[4] = Humidity stress (XRPD)
Description: Approximately 15 mg of Form B lot was stored at 95% relative humidity (RH) at ambient temperature. […] This surprising humidity/temperature stability of Form B was further evidenced from the following experiments. Form B samples were stored at 95% relative humidity (RH) and ambient temperature, and at 75% RH and 40° C. […] The increase of water content appeared to reach a plateau after an initial water sorption period.

[5] = about 1:1.2 v/v EtOH/water, ambient temperature

| Polymorphic form by XRPD after drying ([1]; dried at 50° C., 2 hours) | Polymorphic form by XRPD after drying ([1]; dried at 70° C., 2 hours) | Polymorphic form by XRPD after drying ([1]; under vacuum at 40° C., 2 hours, two lots) | Polymorphic form by XRPD after drying ([1]; under vacuum at 40° C., 18 hours) | Polymorphic form by XRPD after drying ([1]; under vacuum at 65° C., 60 hours, solids crystallized from EtOH/water) | Form conversion on slurrying (XRPD) [2, 5] | Relative thermodynamic stability of the polymorphs ([3]; conversions observed upon heating: C→B→D→A) | Degradation by HPLC after drying ([1]; 50° C.) | Degradation by HPLC after drying ([1]; 70° C.) | Stability by HPLC when dried with DI-water and EtOH ([1]; under vacuum, extended period, 50° C.) | Form conversion on slurrying (XRPD) ([2]; EtOH/water 1:2.37 v/v, 50° C., 4 hours) | Form conversion on slurrying (XRPD) ([2]; about 1:1.2 v/v EtOH/water, 50° C., 2 hours) | Form conversion under humidity stress (XRPD) ([4]; 75% RH, 40° C., 11 days) | Form conversion under humidity stress (XRPD) ([4]; 95% RH, ambient temperature, 10 days) | Form conversion under humidity stress (XRPD) ([4]; 95% RH, ambient temperature, 11 days) | Form conversion on heating (XRPD) ([3]; 30° C. to 135° C. at 10° C./min, held at 135° C. for 30 minutes) | Form conversion on heating (XRPD) ([3]; 30° C. to 150° C. at 10° C./min, held at 150° C. for 30 minutes) | Structure (SMILES) | Stability to prolonged heating ([1]; heating up to 70° C.) |
| --- | --- | --- | --- | --- | --- | --- | --- | --- | --- | --- | --- | --- | --- | --- | --- | --- | --- | --- |
| form conversion to Form B was complete | form conversion to Form B was complete | converted to Form B | complete conversion to Form B | converted to Form B |  |  |  |  |  |  |  |  |  |  |  |  | C[C@H](CCC(=O)O)[C@H]1CC[C@H]2[C@@H]3CC[C@@H]4C[C@H](O)CC[C@]4(C)[C@H]3C[C@H](O)[C@]12C [Form C, deoxycholic acid] |  |
|  |  |  |  |  | converted to Form C | most thermodynamically stable polymorph |  |  |  |  |  |  |  |  |  |  | C[C@H](CCC(=O)O)[C@H]1CC[C@H]2[C@@H]3CC[C@@H]4C[C@H](O)CC[C@]4(C)[C@H]3C[C@H](O)[C@]12C [Form A, deoxycholic acid] |  |
|  |  |  |  |  | did not show any form conversion |  | no degradation | no degradation | stable | remained to be Form B | afforded Form C | no form conversion | no conversion to Form C | no form conversion | complete conversion to Form D | complete conversion to Form A | C[C@H](CCC(=O)O)[C@H]1CC[C@H]2[C@@H]3CC[C@@H]4C[C@H](O)CC[C@]4(C)[C@H]3C[C@H](O)[C@]12C [Form B, deoxycholic acid] | stable to prolonged heating at up to 70 °C |

— patent US20130102580A1, “COMPOSITIONS AND METHODS RELATED TO DEOXYCHOLIC ACID AND ITS POLYMORPHS” (Kythera Biopharmaceuticals, Inc., priority 2011, published 2013)
